In patent US20200399238A1, “THERAPEUTIC AURONES” (MIDDLE TENNESSEE STATE UNIVERSITY, priority 2016, published 2020):
Read-outs that look alike come from different tables or passages of the source.

What was measured:
[1] = tested on: Leishmania amazonensis promastigotes expressing beta-lactamase; test: microbe, parasite or virus in culture; format: cell-based
[2] = tested on: Trypanosoma brucei brucei 427 cells; test: T. brucei culture and assay (PrestoBlue); format: cell-based; settings: for IC50: mean of 2(+) independent trials, read-out: IC50 T. brucei
[3] = tested on: Trypanosoma cruzi Tulahuen trypomastigotes; test: T. cruzi extracellular assay (CellTiter Glo); format: cell-based; settings: for IC50: Trypanosoma cruzi, TULAHUEN; for Selectivity L6/Tc: T. cruzi IC50 from extracellular assay (^b); for Selectivity L6/Tc (T. cruzi value from extracellular assay): L6 IC50 / T. cruzi IC50 (extracellular assay)
[4] = tested on: rat skeletal muscle cell line, L6; test: cells; format: cell-based
[5] = tested on: C. albicans (ATCC strain 90028); test: Antifungal microdilution broth assay (PrestoBlue), C. albicans; format: cell-based, Candida albicans; settings: Candida albicans, ATCC90028, Table 4B; C. albicans; 100 μM; value ± spread; read-out: Percent Inhibition (at 100 μM)
Experimental: Sigma-Aldrich) was used as the base medium for testing. […] solution of morpholinepropanesulfonic acid (MOPS; Sigma-Aldrich) was added to the RPMI to a final concentration of 0.165 M for buffering (RPMI-MOPS). This medium was adjusted to a pH of 7.0 with 10 M NaOH and filter sterilized. C. albicans (ATCC strain 90028), C. [NT] strain 66032), and C. tropicalis (ATCC strain 750) were cultured on potato dextrose agar (Sigma-Aldrich) plates, and incubated at 35° C. for 24 hours. For antifungal testing, overnight colonies were adjusted to 1.5×10^3 cells/mL, hereafter referred to as the test inoculum. PrestoBlue® (Life Technologies, Invitrogen, Carlsbad, Calif.), a resazurin-based cell viability reagent that, in metabolically active cells, is reduced from blue, non-fluorescent resazurin, to red, fluorescent resorufin, was used to assess inhibition of yeast growth by the aurones. […] Following addition of aurone, plates were then incubated for 24 hours at 35° C. PrestoBlue was added to a final concentration of 10% in each well and fluorescence read at 560 nm excitation and 590 nm emission, per manufacturer instructions, using a SpectraMax M2e spectrophotometer (Molecular Devices, LLC, Sunnyvale, Calif.). To optimize the PrestoBlue reduction time, RFUs were collected at 15 minute intervals for 4 hours using a reference antifungal. […] IC50 determination was calculated using GraphPad Prism version 7.01 for Windows (GraphPad Software, Inc., La Jolla, Calif.) from the RFUs at dilution points. Calculations were made with a nonlinear regression after transforming the molar concentrations of the aurones into the logarithmic form. Graphing was accomplished utilizing the same program following a four parameter curve fitting sigmoidal plot of the data. All aurones and controls were tested in triplicate and all testing was repeated in at least three independent experiments.

[6] = tested on: Trypanosoma cruzi Tulahuen cells expressing beta-galactosidase; test: T. cruzi intracellular assay (beta-galactosidase, L6 host cells); settings: Trypanosoma cruzi, TULAHUEN
Experimental: Trypanosoma cruzi Tulahuen cells expressing beta-galactosidase (Buckner et al., Antimicrob. Agents Chemother. 40 (1996) 2592-2597) were cultured using the L6 cell line as a host cell. Adherent L6 cultures were infected with freshly burst T. cruzi trypomastigotes. Approximately 4-6 days later freshly burst trypomastigotes were collected and used to maintain cultures For assays, trypomastigotes were centrifuged to a loose pellet and incubated for 3 hours to allow the trypomastigote forms to swim out of the pellet. Cells were adjusted for addition to intracellular or extracellular assays. […] For intracellular assays, cells were added to adherent L6 cells using an infection ratio of 1:1 and immediately treated with compounds. At 96 hours incubations, a solution containing chlorophenol-red-B-D-beta-galactopyranosidase (Sigma) and a lysis agent were added. After an additional 2 hour incubation, a spectrophotometer was used to quantify the resulting color change (or lack thereof) which was used to calculate inhibition.
The percentage of cell inhibition was calculated using the formula: Percent Inhibition=1−((Treated Sample value−Medium only value)/(Untreated value−Medium only value))×100. Results are expressed as the mean of two or more independent trials.

TNFα = test: Cytokine response by ELISA, TNFα; format: cell-based, human; settings: Homo sapiens, LPS-stimulated THP-1 cells, mean ± SD, read-out: Average % TNF-α Inhibition
Experimental: Dexamethasone is a synthetic glucocorticoid that suppresses LPS-induced pro-inflammatory cytokine expression and was used as a control (Abraham, Lawrence et al. 2006). Supernatants were collected for human cytokine ELISAs and the manufacturer's protocol was followed to assess the cytokine response. Cells remaining after the supernatant collection were tested for relative viability by Alamar Blue cytotoxicity assay as previously described.

[7] = Leishmania amazonensis, read-out: IC50 L. amaz.
[8] = Table 2, L6 IC50 / L. amazonensis IC50
[9] = Table 1, ^b extracellular T. cruzi assay, read-out: IC50 T. cruzi
[10] = Table 2, extracellular assay, read-out: IC50 T. cruzi (footnote b: Extracellular T. cruzi assay)
[11] = Rattus norvegicus, Table 1, read-out: IC50 Toxicity (L6)
[12] = Table 2, L6 mammalian cells, read-out: IC50 Toxicity (L6)
[13] = read-out: IC50 T. cruzi, Table 1, intracellular assay, mean of 2(+) trials (^c one trial)
[14] = read-out: IC50 T. cruzi, Table 2, intracellular assay, mean of 2(+) independent trials
[15] = Table 2, L6 IC50 / T. brucei IC50
[16] = Leishmania amazonensis, read-out: IC50 L. amaz. (footnote c: value obtained from one trial)

Row | Compound | IC50 [1, 7] [µM] | Selectivity L6/La ([1]; Table 1) | Selectivity L6/La [1, 8] | melting point [°C] | IC50 ([2]; Trypanosoma brucei, Table 1) [µM] | IC50 [3, 9] [µM] | IC50 [3, 10] [µM] | IC50 [4, 11] [µM] | Selectivity L6/Tb ([2]; Table 1) | further results
1 | Cc1ccc2c(c1)C(=O)/C(=C/c1ccc(O)cc1)O2 [Aurone 4005, (Z)-2-(4-hydroxybenzylidene)-5-methylbenzofuran-3(2H)-one] | 3.58 | >27.93 | >27.93 | 228 to 231 | > 50 | > 50 | > 50 | > 100 |  | IC50 ([2]; Table 2): > 50 µM; IC50 [4, 12]: > 100 µM
2 | O=C1/C(=C/c2ccc(Br)cc2)Oc2ccc(Br)cc21 [Aurone 6002, (Z)-5-bromo-2-(4-bromobenzylidene)benzofuran-3(2H)-one] | 11 | >9.07 |  | 126 to 130 | 42 | > 50 |  | > 100 | >2.38 | 
3 | O=C1/C(=C/c2ccccc2O)Oc2ccccc21 [Aurone 9088, (Z)-2-(2-hydroxybenzylidene)benzofuran-3(2H)-one] | 9.54 |  |  | 215 to 216 | > 50 |  |  | > 100 |  | inhibition at 100 µM [5]: 1 ± 1.1%; IC50 [6, 13]: 18.4 µM; IC50 [6, 14]: 18.4 µM
4 | N#Cc1ccc(/C=C2\Oc3ccc(Br)cc3C2=O)cc1 [Aurone 6003, (Z)-4-((5-bromo-3-oxobenzofuran-2(3H)-ylidene)methyl)benzonitrile] | 1.22 | >81.97 | >81.97 |  | 17.1 | > 50 | > 50 | > 100 | >5.85 | Selectivity L6/Tb [2, 15]: >5.85; IC50 [4, 12]: > 100 µM
5 | COc1ccc(/C=C2\Oc3ccc(C)cc3C2=O)c(OC)c1OC [Aurone 4004, (Z)-5-methyl-2-(2,3,4-trimethoxybenzylidene)benzofuran-3(2H)-one] | 4.04 | 10.86 | 10.86 | 74 to 78 | 19.7 | > 50 | > 50 | 43.9 | 2.23 | Selectivity L6/Tb [2, 15]: 2.23
6 | O=C1/C(=C/c2cc(Br)cc(Br)c2O)Oc2ccccc21 [Aurone 3012, (Z)-2-(3,5-dibromo-2-hydroxybenzylidene)benzofuran-3(2H)-one] | 1.21 | >82.64 | >82.64 |  | > 50 | 40.1 | 40.1 | > 100 |  | IC50 ([2]; Table 2): > 50 µM; Selectivity L6/Tc ([3]; Table 1): >2.49; Selectivity L6/Tc (T. cruzi value from extracellular assay) ([3]; Table 2): >2.49; IC50 ([6]; read-out: IC50 TC-I, Table 3A, weighted means of two or more independent trials): > 50 µM; IC50 ([4]; Rattus norvegicus, Table 3A, weighted means of two or more independent trials, read-out: IC50 L6): > 100 µM; IC50 [4, 12]: > 100 µM
7 | N=C1/C(=C/c2ccccn2)Oc2ccc(F)cc21 [Aurone 9312, (Z)-5-fluoro-2-(pyridin-2-ylmethylene)benzofuran-3(2H)-imine] | < 1 | >200 | >200 |  | > 50 | > 50 | > 50 | > 200 |  | IC50 ([1]; read-out: IC50 L. amaz., Table 2, mean of 2(+) independent trials): < 1 µM; IC50 ([2]; Table 2): > 50 µM; IC50 [4, 12]: > 200 µM
8 | Cc1ccc2c(c1)C(=O)/C(=C/c1ccccc1C(F)(F)F)O2 [Aurone 4006, (Z)-5-methyl-2-(2-(trifluoromethyl)benzylidene)benzofuran-3(2H)-one] | 9.7 | 7.52 | 7.52 | 121 to 124 | 30.2 | 15.8 | 15.8 | 72.9 | 2.41 | Selectivity L6/Tb [2, 15]: 2.41; Selectivity L6/Tc ([3]; Table 1): 4.62; Selectivity L6/Tc (T. cruzi value from extracellular assay) ([3]; Table 2): 4.62
9 | O=C1/C(=C/c2ccc(CO)o2)Oc2ccccc21 [Aurone 1] |  |  |  |  |  |  |  |  |  | inhibition at 40 µM (TNFα): 51.8 ± 13.5%; inhibition at 80 µM (TNFα; 80 μM): 93.8 ± 0.7%
10 | COc1ccc(/C=C2\Oc3ccccc3C2=O)cc1O [Aurone 9, (Z)-2-(3-hydroxy-4-methoxybenzylidene)benzofuran-3(2H)-one] |  |  |  |  |  |  |  |  |  | inhibition at 40 µM (TNFα): 14.9 ± 7.2%
11 | CC(=O)N1/C(=C\c2ccc(CO)o2)C(=O)c2ccccc21 [AA4A] | < 1 |  |  |  | 34.7 | > 50 | > 50 | 87 |  | IC50 [1, 16]: < 1 µM
12 | O=C1/C(=C/c2ccc(C(F)(F)F)cc2)Oc2ccc(Br)cc21 [Aurone 6001, (Z)-5-bromo-2-(4-(trifluoromethyl)benzylidene)benzofuran-3(2H)-one] | 7.29 | >13.72 | >13.72 | 120 to 125 | > 50 | > 50 | > 50 | > 100 |  | IC50 ([2]; Table 2): > 50 µM; IC50 [4, 12]: > 100 µM
13 | Cc1ccc2c(c1)C(=O)/C(=C/c1ccc(Br)cc1)O2 [Aurone 4002, (Z)-2-(4-bromobenzylidene)-5-methylbenzofuran-3(2H)-one] | 19.7 | >5.07 |  | 171 to 175 | 42.8 | > 50 |  | > 100 | >2.34 | 
14 | Cc1cccc(/C=C2\Oc3ccccc3C2=O)c1 [Aurone 9064, (Z)-2-(3-methylbenzylidene)benzofuran-3(2H)-one] | 4.4 |  |  | 74 to 75 | 32.6 | 18.4 | 18.4 | 79.9 |  | 
15 | O=C1/C(=C/c2ccccc2O)Oc2ccccc21 [Aurone 4, (Z)-2-(2-hydroxybenzylidene)benzofuran-3(2H)-one] |  |  |  |  |  |  |  |  |  | inhibition at 40 µM (TNFα): 15.4 ± 5.3%
16 | O=C1/C(=C/c2ccc(CO)o2)Sc2ccccc21 [TA2] | < 1 |  |  |  | 11.4 | > 50 | > 50 | > 200 |  | 
17 | COc1cc(OC)c2c(c1)O/C(=C\c1ccc(C#N)cc1)C2=O [Aurone 7002, (Z)-4-((4,6-dimethoxy-3-oxobenzofuran-2(3H)-ylidene)methyl)benonitrile] | 2.08 | 39.68 | 39.68 | 220 to 223 | > 50 | > 50 | > 50 | 82.5 |  | IC50 [1, 16]: 2.08 µM; IC50 ([2]; Table 2): > 50 µM
18 | Cc1ccc2c(c1)C(=O)/C(=C/c1ccc(C#N)cc1)O2 [Aurone 4001, (Z)-4-((5-methyl-3-oxobenzofuran-2(3H)-ylidene)methyl)benzonitrile] | 38.4 | 1.98 | 1.98 | 148 to 152 | 2.66 | 31.7 | 31.7 | 76.2 | 28.66 | Selectivity L6/Tb [2, 15]: 28.66; Selectivity L6/Tc ([3]; Table 1): 2.40; Selectivity L6/Tc (T. cruzi value from extracellular assay) ([3]; Table 2): 2.40
19 | N#Cc1cccc(/C=C2\Oc3ccccc3C2=O)c1 [Aurone 9070, (Z)-3-((3-oxobenzofuran-2(3H)-ylidene)methyl)benzonitrile] | < 1 |  |  | 175 to 177 | 34.7 |  |  | > 200 |  | IC50 [6, 13]: 16.7 µM; IC50 [6, 14]: 16.7 µM
